From US11266662B2, “Ganaxolone for use in prophylaxis and treatment of postpartum depression” (Marinus Pharmaceuticals, Inc., priority 2018, dated 2022)
Entries after “also recorded” stand apart in the source; their conditions may differ.

Experiments:
[1] = system: mouse model of posttraumatic stress disorder (PTSD); conditions: Pinna and Rasmussen, 2014; cited from earlier work
[2] = system: rabbits; assay: Local tolerance study in rabbits; conditions: rabbit, in vivo
[3] = In vitro haemolysis / human plasma compatibility
[4] = Mutagenicity
[5] = Excretion of radioactivity; conditions: all species
[6] = system: CYP3A4/5; assay: Ganaxolone levels in subjects taking strong CYP inducers (carbamazepine and phenytoin); conditions: with strong CYP inducers (carbamazepine and phenytoin)
[7] = IV bolus plus continuous IV infusion toxicity in dog, 28 days; conditions: in vivo
[8] = system: subjects; assay: All completed placebo-controlled clinical studies of ganaxolone: adverse events; assay type: in vivo, human
Protocol: As of Oct. 10, 2017, 1557 unique subjects have received ganaxolone ranging in duration from 1 day to more than 2 years using doses from 50 to 2000 mg/day in completed studies. Of these subjects, 1527 subjects received oral ganaxolone and 30 subjects received intravenous (IV ganaxolone).
In 20 completed Phase 1 studies, 319 healthy subjects received ganaxolone oral doses of 50 to 2,000 mg/day for periods of up to 2 weeks or IV bolus doses ranging from 10 to 30 mg over durations of 2 minutes to 1 hour or a bolus dose of 6 mg over 5 minutes followed with a continuous infusion of 20 mg per hour for 4 hours.
In the 20 completed Phase 2/3 clinical studies, 1238 unique subjects have received oral ganaxolone in studies of adult subjects with epilepsy, pediatric subjects with seizure disorders, pediatric subjects with FXS, adult subjects with PTSD, and adult subjects with migraine.

[9] = system: BTBR mouse model of autism; conditions: Kazdoba et al, 2016; cited from earlier work
[10] = Tissue distribution of [14C]-ganaxolone; conditions: mouse, rat, brain
[11] = system: cytochrome P450 (CYP) isoenzymes 1A1/2 and 2B1/2; assay: Induction of cytochrome P450 isoenzymes in rats; conditions: female rats but not males
[12] = Phase 1 study of IV ganaxolone in healthy volunteers (safety, pharmacokinetics, sedation); assay type: in vivo, human
Protocol: The safety, pharmacokinetics and pharmacodynamics of IV ganaxolone were investigated in healthy 36 volunteers, in which ganaxolone was administered as a bolus dosing (Stage 1) or as a bolus dose followed by a continuous infusion (Stage 2). Ten of the 36 subjects enrolled were women. Stage 1 enrolled and dosed subjects in 4 cohorts (A-D): 6 subjects in Cohort A (10 mg ganaxolone IV bolus in 3 subjects and 30 mg ganaxolone bolus in 3 subjects over 5-minutes), 8 subjects in Cohort B (20 mg ganaxolone bolus over 2-minutes), 8 subjects in Cohort C (30 mg ganaxolone bolus over 1-hour) and 8 subjects in Cohort D (10 mg ganaxolone bolus over 1-hour). Cohorts B, C and D included 2 placebo subjects in each cohort. Stage 2 of the study dosed a total of 6 subjects with a 6 mg bolus followed by a 4-hour infusion at 20 mg/h. Ten of the 36 subjects enrolled in the study were women.
A Phase 1 study in healthy volunteers investigating the safety of IV ganaxolone, infusion of 30 mg/hr for 1 hour, 20 mg over 2 minutes and 20 mg/hr for 4 hours led to peak concentrations of 258, 441 and 215 ng/mL, respectively, without any safety concerns. Sedation was assessed using the Modified Observers Assessment of Alertness/Sedation (MOAAS) scale. On this scale, score 5 indicates no sedation (responds readily to name spoken in normal tone) while score 1 indicates deep sedation (responds only after painful trapezius squeeze). […] The sedation scores reversed quickly after the infusion was stopped. The highest bolus dose tested was 30 mg, which was infused over 5-minutes. This dose led to peak concentration levels (Cmax) of >1,000 ng/mL with no safety concerns (except sedation).

[13] = system: women with postpartum depression; assay: Phase 2A study Cohort 6: efficacy (HAM-D17, CGI-I, EPDS, STAI6) versus placebo; assay type: in vivo, human; conditions: for Placebo-adjusted difference, HAM-D17 (LS Mean), early efficacy / Placebo-adjusted difference, HAM-D17 (LS Mean), late efficacy: Cohort 6: IV 20 mg/hr for 6 h then 900 mg orally for 28 days; for Placebo-adjusted difference, HAM-D17 (LS Mean), late efficacy: Day 29
Protocol: Approximately 10-30 subjects are randomized into each cohort.
The primary efficacy endpoint is HAM-D17 total score change from baseline to 60 hours post-infusion (on Day 3) for Cohorts 1-3 and to Day 29 for Cohort 6. The primary analysis in each cohort is done using the mITT set. Although the trial is not powered for inferential analysis and there is no consideration for control of type 1 error across multiple cohorts, a clinically meaningful numeric difference in means of 3-4 points, based on mITT analysis, between ganaxalone and placebo treatment groups is considered an indication of acceptable efficacy and is be the most influential outcome in the overall assessment of the efficacy of ganaxolone in treating PPD.
The trial also evaluates the following secondary endpoints at each post-baseline data collection time point to provide additional evidence of the efficacy of ganaxolone in treating PPD: • Change from baseline in HAM-D17 total score other than at 60 hours post-infusion (on Day 3) for Cohorts 1-3 and to Day 29 for Cohort 6 • Change from baseline in EPDS total score • Change from baseline in STAI6 • CGI-I. Exploratory Endpoints

SMILES: CC(=O)[C@H]1CC[C@H]2[C@@H]3CC[C@H]4C[C@](C)(O)CC[C@]4(C)[C@H]3CC[C@]12C [ganaxolone, 3α-hydroxy-3β-methyl-5α-pregnan-20-one]
- Aggression and social isolation-induced anxiety-like behaviour [1]: decreased aggression and social isolation-induced anxiety-like behaviour
- Local tolerance [2]: no findings
- Haemolysis [3]: did not cause haemolysis; also recorded: did not cause hemolysis
- Mutagenicity [4]: No potential for mutagenicity was detected
- Excreted radioactivity via faeces [5]: > 70%
- Lowering in overall ganaxolone levels and exposure [6]: ~45%
- NOAEL at 28 days [7]: 7.2 mg/kg/day
- Incidence of syncope ([8]; 2/993 subjects): 0.2%
- Discontinuations due to rash ([8]; 6/993): 0.6%
- Subjects with at least 1 treatment emergent adverse event (TEAE) ([8]; 613/993 subjects): 61.7%
- Subjects with elevated LFTs (>3×ULN AST and/or ALT) ([8]; Phase 1, 2, and 3 placebo-controlled studies): 0.32%
- Events of loss of consciousness ([8]; all placebo-controlled studies): no events of loss of consciousness related to ganaxolone
- TEAE dizziness ([8]; human, in vivo): 13.0%
- TEAE fatigue ([8]; human, in vivo): 9.7%
- TEAE headache ([8]; human, in vivo): 5.5%
- TEAE somnolence ([8]; human, in vivo): 22.0%
- Sociability [9]: improved sociability
- Kp [10]: ~5
- Induction of CYP isoenzymes 1A1/2 and 2B1/2 [11]: induces
- Peak concentration ([12]; 20 mg over 2 minutes): 441 ng/mL
- Peak concentration ([12]; 20 mg/hr for 4 hours): 215 ng/mL
- Treatment emergent AEs, seriousness and intensity ([12]; Stages 1 and 2): None of the treatment emergent AEs were serious, and all were of mild intensity
- Cmax ([12]; human, in vivo, intravenous, bolus infusion of 30 mg over 5-minutes, read-out: Peak concentration levels (Cmax)): > 1000 ng/mL
- Peak concentration ([12]; infusion of 30 mg/hr for 1 hour): 258 ng/mL
- Modified Observers Assessment of Alertness/Sedation (MOAAS) score ([12]; score 5 = no sedation, 1 = deep sedation): vast majority of the scores were 5
- EPDS and STAI6 versus placebo ([13]; Cohort 6): numeric advantage at all timepoints till Day 29
- Placebo-adjusted difference, HAM-D17 (LS Mean), early efficacy ([13]; PP, 6 hours): −3.4
- Placebo-adjusted difference, HAM-D17 (LS Mean), early efficacy ([13]; PP, Day 2): −2.7
- Placebo-adjusted difference, HAM-D17 (LS Mean), late efficacy ([13]; PP): −2.6
- Placebo-adjusted difference, HAM-D17 (LS Mean), early efficacy ([13]; mITT, 6 hours): −2.8
- Placebo-adjusted difference, HAM-D17 (LS Mean), early efficacy ([13]; mITT, Day 2): −2.6
- Placebo-adjusted difference, HAM-D17 (LS Mean), late efficacy ([13]; mITT): +1
- HAMD17 change from baseline, PP analysis and sensitivity by site analyses ([13]; Cohort 6, after Day 2): favors GNX
- HAMD17 decrease versus placebo ([13]; Cohort 6, at 6 hours and on Day2, both mITT, PP): favor ganaxolone
- CGI-I decrease versus placebo ([13]; Cohort 6, both mITT, PP, early timepoint): favors GNX
- HAMD17 mITT analysis at late and intermediate timepoints during oral treatment ([13]; Cohort 6, mITT): not different from placebo
- CGI-I versus placebo ([13]; Cohort 6, mITT and PP, Day 2, Day 8, Day 15, Day 29 (p<0.05)): favors GNX at all timepoints
